Earlier results in publication PMC4195943, “A novel small-molecule MRCK inhibitor blocks cancer cell invasion” (Cell Communication and Signaling : CCS, 2014).

How the values were obtained:
Protein Kinase C = target: Protein Kinase C; parameters: method as in PMID 2244923; conditions: read-out: in vitro IC50, Protein Kinase C; cited from earlier work
MRCKα = MRCKα (Homo sapiens, UniProt Q5VT25); parameters: method as in PMID 21457715; conditions: read-out: in vitro IC50, MRCKα; cited from earlier work
MRCKα, sequence (Q5VT25 whole entry): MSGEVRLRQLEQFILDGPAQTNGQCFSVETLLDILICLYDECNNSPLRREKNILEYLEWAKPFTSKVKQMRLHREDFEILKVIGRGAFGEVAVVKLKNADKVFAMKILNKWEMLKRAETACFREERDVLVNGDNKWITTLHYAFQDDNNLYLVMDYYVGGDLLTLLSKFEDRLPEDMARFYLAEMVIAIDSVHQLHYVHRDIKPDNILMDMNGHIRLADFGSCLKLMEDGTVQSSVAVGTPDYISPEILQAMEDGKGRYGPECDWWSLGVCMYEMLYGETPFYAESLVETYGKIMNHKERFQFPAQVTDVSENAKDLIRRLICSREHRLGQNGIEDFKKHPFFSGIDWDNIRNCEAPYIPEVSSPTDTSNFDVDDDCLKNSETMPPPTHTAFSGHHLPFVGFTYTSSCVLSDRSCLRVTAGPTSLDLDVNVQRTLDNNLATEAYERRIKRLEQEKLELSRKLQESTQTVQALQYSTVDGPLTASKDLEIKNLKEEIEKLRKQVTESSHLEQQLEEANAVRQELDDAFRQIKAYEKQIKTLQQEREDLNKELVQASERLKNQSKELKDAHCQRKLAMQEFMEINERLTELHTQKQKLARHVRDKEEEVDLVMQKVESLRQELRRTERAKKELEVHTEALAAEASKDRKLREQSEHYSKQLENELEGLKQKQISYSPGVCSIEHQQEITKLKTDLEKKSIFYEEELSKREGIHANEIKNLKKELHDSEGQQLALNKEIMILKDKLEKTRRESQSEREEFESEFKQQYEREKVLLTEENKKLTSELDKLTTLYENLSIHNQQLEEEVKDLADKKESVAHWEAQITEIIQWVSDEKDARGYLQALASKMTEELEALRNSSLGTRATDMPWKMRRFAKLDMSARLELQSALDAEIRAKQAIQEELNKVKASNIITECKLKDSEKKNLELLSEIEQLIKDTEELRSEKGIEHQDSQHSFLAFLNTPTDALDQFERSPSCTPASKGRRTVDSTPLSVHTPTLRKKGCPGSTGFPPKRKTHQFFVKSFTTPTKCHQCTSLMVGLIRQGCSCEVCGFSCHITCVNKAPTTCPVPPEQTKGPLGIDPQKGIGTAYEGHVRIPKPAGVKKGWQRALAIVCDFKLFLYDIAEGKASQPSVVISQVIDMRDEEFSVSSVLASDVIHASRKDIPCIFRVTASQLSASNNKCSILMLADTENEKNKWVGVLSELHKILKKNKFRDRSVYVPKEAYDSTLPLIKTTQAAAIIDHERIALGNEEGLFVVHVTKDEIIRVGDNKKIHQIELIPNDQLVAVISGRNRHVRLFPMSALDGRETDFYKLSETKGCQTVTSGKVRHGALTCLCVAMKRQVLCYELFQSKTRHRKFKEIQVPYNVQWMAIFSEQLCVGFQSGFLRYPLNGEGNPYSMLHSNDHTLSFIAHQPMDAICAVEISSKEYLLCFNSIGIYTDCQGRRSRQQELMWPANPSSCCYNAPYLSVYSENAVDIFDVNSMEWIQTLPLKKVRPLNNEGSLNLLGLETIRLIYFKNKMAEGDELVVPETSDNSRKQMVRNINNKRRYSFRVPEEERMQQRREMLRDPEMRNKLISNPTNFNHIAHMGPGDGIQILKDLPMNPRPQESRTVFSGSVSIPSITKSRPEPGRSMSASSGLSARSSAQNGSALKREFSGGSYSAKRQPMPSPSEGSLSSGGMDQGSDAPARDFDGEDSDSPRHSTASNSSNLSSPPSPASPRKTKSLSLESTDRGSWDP

Structure (SMILES): COc1ccc2c(c[n+](C)c3c4cc5c(cc4ccc23)OCO5)c1OC [Chelerythrine]
- IC50 (Protein Kinase C): 660 nM
- IC50 (MRCKα): 1770 nM
